PMC12102759 (Protein Science : A Publication of the Protein Society, 2025)
Like-named read-outs stand apart in the source and are kept apart here.

System: PABPC1 PABC
Format: binding, human
Details: DMS-BM library, bait PABPC1 PABC, row aa = residue at this position
[1] = prey ATXN2, peptide TLNPNAKEFNPRSFSQ, N = wild type
[2] = prey ATXN2, peptide TLNPNAKEFNPRSFSQ, F = wild type
[3] = prey ATXN2, TLNPNAKEFNPRSF(averaged) over the two overlapping peptides, S = wild type
[4] = prey ATXN2, peptide TLNPNAKEFNPRSFSQ, P = wild type
[5] = prey ATXN2, TLNPNAKEFNPRSF(averaged) over the two overlapping peptides, P = wild type
[6] = prey ATXN2, peptide KSTLNPNAKEFNPRSF, N = wild type
[7] = prey ATXN2, peptide KSTLNPNAKEFNPRSF, P = wild type
[8] = prey ATXN2, peptide KSTLNPNAKEFNPRSF, K = wild type
[9] = prey ATXN2, peptide TLNPNAKEFNPRSFSQ, S = wild type
[10] = prey ATXN2, peptide TLNPNAKEFNPRSFSQ, A = wild type
[11] = prey ATXN2, peptide KSTLNPNAKEFNPRSF, R = wild type
[12] = prey ATXN2, peptide TLNPNAKEFNPRSFSQ, L = wild type
[13] = prey ATXN2, peptide KSTLNPNAKEFNPRSF, F = wild type
[14] = prey ATXN2, TLNPNAKEFNPRSF(averaged) over the two overlapping peptides, N = wild type
[15] = prey ATXN2, TLNPNAKEFNPRSF(averaged) over the two overlapping peptides, T = wild type
[16] = prey ATXN2, TLNPNAKEFNPRSF(averaged) over the two overlapping peptides, E = wild type
[17] = prey ATXN2, TLNPNAKEFNPRSF(averaged) over the two overlapping peptides, K = wild type
[18] = prey ATXN2, TLNPNAKEFNPRSF(averaged) over the two overlapping peptides, A = wild type

“TLNPNAKEFNPRSFSQ N10Q (TLNPNAKEFQPRSFSQ)” was tested, and the “DMS-derived PSSM value, position N10” value [1] was 0.09458.

For TLNPNAKEFNPRSFSQ F9R (TLNPNAKERNPRSFSQ), the “DMS-derived PSSM value, position F9” value [2] was 0.

In the case of “TLNPNAKEFNPRSF(averaged) S13T (TLNPNAKEFNPRTF)”, the “DMS-derived PSSM value (averaged), position S13” value [3] is reported as 0.05607.

With TLNPNAKEFNPRSFSQ P4Y (TLNYNAKEFNPRSFSQ) the “DMS-derived PSSM value, position P4” value [4] was 0.

In the case of “TLNPNAKEFNPRSF(averaged) P11A (TLNPNAKEFNARSF)”, the “DMS-derived PSSM value (averaged), position P11” value [5] is reported as 0.00277.

For TLNPNAKEFNPRSFSQ F9A (TLNPNAKEANPRSFSQ), the “DMS-derived PSSM value, position F9” value [2] was 0.

In the case of KSTLNPNAKEFNPRSF N5T (KSTLTPNAKEFNPRSF), the “DMS-derived PSSM value, position N5” value [6] is reported as 0.

In the case of “KSTLNPNAKEFNPRSF P13N (KSTLNPNAKEFNNRSF)”, the “DMS-derived PSSM value, position P13” value [7] is reported as 0.004405.

For “TLNPNAKEFNPRSF(averaged) P11K (TLNPNAKEFNKRSF)”, the “DMS-derived PSSM value (averaged), position P11” value [5] was 0.

TLNPNAKEFNPRSFSQ E8K (TLNPNAKKFNPRSFSQ) was tested, and the “DMS-derived PSSM value, position E8” value (prey ATXN2, peptide TLNPNAKEFNPRSFSQ, E = wild type) was 0.

In the case of KSTLNPNAKEFNPRSF K9D (KSTLNPNADEFNPRSF), the “DMS-derived PSSM value, position K9” value [8] is reported as 0.007291.

KSTLNPNAKEFNPRSF K9N (KSTLNPNANEFNPRSF) was tested, and the “DMS-derived PSSM value, position K9” value [8] was 0.1194.

With “TLNPNAKEFNPRSFSQ S13P (TLNPNAKEFNPRPFSQ)” the “DMS-derived PSSM value, position S13” value [9] was 0.0852.

With TLNPNAKEFNPRSFSQ A6N (TLNPNNKEFNPRSFSQ) the “DMS-derived PSSM value, position A6” value [10] was 0.

In the case of “KSTLNPNAKEFNPRSF R14N (KSTLNPNAKEFNPNSF)”, the “DMS-derived PSSM value, position R14” value [11] is reported as 0.007229.

For TLNPNAKEFNPRSFSQ L2H (THNPNAKEFNPRSFSQ), the “DMS-derived PSSM value, position L2” value [12] was 0.

With TLNPNAKEFNPRSFSQ L2T (TTNPNAKEFNPRSFSQ) the “DMS-derived PSSM value, position L2” value [12] was 0.

For KSTLNPNAKEFNPRSF K9H (KSTLNPNAHEFNPRSF), the “DMS-derived PSSM value, position K9” value [8] was 0.04428.

For TLNPNAKEFNPRSFSQ N5V (TLNPVAKEFNPRSFSQ), the “DMS-derived PSSM value, position N5” value [1] was 0.09342.

With “KSTLNPNAKEFNPRSF F16Q (KSTLNPNAKEFNPRSQ)” the “DMS-derived PSSM value, position F16” value [13] was 0.002875.

With “TLNPNAKEFNPRSF(averaged) S13D (TLNPNAKEFNPRDF)” the “DMS-derived PSSM value (averaged), position S13” value [3] was 0.02964.

With “TLNPNAKEFNPRSF(averaged) N10D (TLNPNAKEFDPRSF)” the “DMS-derived PSSM value (averaged), position N10” value [14] was 0.04905.

TLNPNAKEFNPRSFSQ A6I (TLNPNIKEFNPRSFSQ) was tested, and the “DMS-derived PSSM value, position A6” value [10] was 0.03549.

With KSTLNPNAKEFNPRSF N7K (KSTLNPKAKEFNPRSF) the “DMS-derived PSSM value, position N7” value [6] was 0.007258.

With “TLNPNAKEFNPRSF(averaged) T1W (WLNPNAKEFNPRSF)” the “DMS-derived PSSM value (averaged), position T1” value [15] was 0.008583.

For KSTLNPNAKEFNPRSF K9I (KSTLNPNAIEFNPRSF), the “DMS-derived PSSM value, position K9” value [8] was 0.4039.

In the case of “TLNPNAKEFNPRSF(averaged) E8R (TLNPNAKRFNPRSF)”, the “DMS-derived PSSM value (averaged), position E8” value [16] is reported as 0.

For TLNPNAKEFNPRSFSQ F9Y (TLNPNAKEYNPRSFSQ), the “DMS-derived PSSM value, position F9” value [2] was 0.02013.

For KSTLNPNAKEFNPRSF N5W (KSTLWPNAKEFNPRSF), the “DMS-derived PSSM value, position N5” value [6] was 0.

With TLNPNAKEFNPRSFSQ A6W (TLNPNWKEFNPRSFSQ) the “DMS-derived PSSM value, position A6” value [10] was 0.

For TLNPNAKEFNPRSFSQ T1S (SLNPNAKEFNPRSFSQ), the “DMS-derived PSSM value, position T1” value (prey ATXN2, peptide TLNPNAKEFNPRSFSQ, T = wild type) was 0.004758.

In the case of TLNPNAKEFNPRSFSQ A6V (TLNPNVKEFNPRSFSQ), the “DMS-derived PSSM value, position A6” value [10] is reported as 0.2197.

For “TLNPNAKEFNPRSF(averaged) K7E (TLNPNAEEFNPRSF)”, the “DMS-derived PSSM value (averaged), position K7” value [17] was 0.01581.

“TLNPNAKEFNPRSF(averaged) N5V (TLNPVAKEFNPRSF)” was tested, and the “DMS-derived PSSM value (averaged), position N5” value [14] was 0.05544.

In the case of “KSTLNPNAKEFNPRSF P13A (KSTLNPNAKEFNARSF)”, the “DMS-derived PSSM value, position P13” value [7] is reported as 0.005231.

With KSTLNPNAKEFNPRSF K9S (KSTLNPNASEFNPRSF) the “DMS-derived PSSM value, position K9” value [8] was 0.05789.

In the case of “TLNPNAKEFNPRSF(averaged) T1H (HLNPNAKEFNPRSF)”, the “DMS-derived PSSM value (averaged), position T1” value [15] is reported as 0.01509.

In the case of “TLNPNAKEFNPRSF(averaged) A6H (TLNPNHKEFNPRSF)”, the “DMS-derived PSSM value (averaged), position A6” value [18] is reported as 0.

For “KSTLNPNAKEFNPRSF R14S (KSTLNPNAKEFNPSSF)”, the “DMS-derived PSSM value, position R14” value [11] was 0.06387.

With “TLNPNAKEFNPRSFSQ P11W (TLNPNAKEFNWRSFSQ)” the “DMS-derived PSSM value, position P11” value [4] was 0.02291.

With “TLNPNAKEFNPRSFSQ F14D (TLNPNAKEFNPRSDSQ)” the “DMS-derived PSSM value, position F14” value [2] was 0.0175.

For “TLNPNAKEFNPRSF(averaged) N5F (TLNPFAKEFNPRSF)”, the “DMS-derived PSSM value (averaged), position N5” value [14] was 0.03844.

With “TLNPNAKEFNPRSF(averaged) R12F (TLNPNAKEFNPFSF)” the “DMS-derived PSSM value (averaged), position R12” value (prey ATXN2, TLNPNAKEFNPRSF(averaged) over the two overlapping peptides, R = wild type) was 0.0319.

In the case of TLNPNAKEFNPRSFSQ A6K (TLNPNKKEFNPRSFSQ), the “DMS-derived PSSM value, position A6” value [10] is reported as 0.

With “KSTLNPNAKEFNPRSF F16T (KSTLNPNAKEFNPRST)” the “DMS-derived PSSM value, position F16” value [13] was 0.02121.

KSTLNPNAKEFNPRSF N7I (KSTLNPIAKEFNPRSF) was tested, and the “DMS-derived PSSM value, position N7” value [6] was 0.5578.

KSTLNPNAKEFNPRSF N7Q (KSTLNPQAKEFNPRSF) was tested, and the “DMS-derived PSSM value, position N7” value [6] was 0.04334.

TLNPNAKEFNPRSFSQ K7T (TLNPNATEFNPRSFSQ) was tested, and the “DMS-derived PSSM value, position K7” value (prey ATXN2, peptide TLNPNAKEFNPRSFSQ, K = wild type) was 0.006845.

In the case of KSTLNPNAKEFNPRSF P6K (KSTLNKNAKEFNPRSF), the “DMS-derived PSSM value, position P6” value [7] is reported as 0.

For “TLNPNAKEFNPRSF(averaged) S13G (TLNPNAKEFNPRGF)”, the “DMS-derived PSSM value (averaged), position S13” value [3] was 0.08376.

For “TLNPNAKEFNPRSF(averaged) P11V (TLNPNAKEFNVRSF)”, the “DMS-derived PSSM value (averaged), position P11” value [5] was 0.44.

For KSTLNPNAKEFNPRSF A8K (KSTLNPNKKEFNPRSF), the “DMS-derived PSSM value, position A8” value (prey ATXN2, peptide KSTLNPNAKEFNPRSF, A = wild type) was 0.

“TLNPNAKEFNPRSF(averaged) E8L (TLNPNAKLFNPRSF)” was tested, and the “DMS-derived PSSM value (averaged), position E8” value [16] was 0.

With “TLNPNAKEFNPRSFSQ R12T (TLNPNAKEFNPTSFSQ)” the “DMS-derived PSSM value, position R12” value (prey ATXN2, peptide TLNPNAKEFNPRSFSQ, R = wild type) was 0.06242.

In the case of “TLNPNAKEFNPRSF(averaged) A6F (TLNPNFKEFNPRSF)”, the “DMS-derived PSSM value (averaged), position A6” value [18] is reported as 0.

With TLNPNAKEFNPRSFSQ L2R (TRNPNAKEFNPRSFSQ) the “DMS-derived PSSM value, position L2” value [12] was 0.

KSTLNPNAKEFNPRSF N7G (KSTLNPGAKEFNPRSF) was tested, and the “DMS-derived PSSM value, position N7” value [6] was 0.

“TLNPNAKEFNPRSFSQ S13W (TLNPNAKEFNPRWFSQ)” was tested, and the “DMS-derived PSSM value, position S13” value [9] was 0.02517.

With TLNPNAKEFNPRSFSQ L2M (TMNPNAKEFNPRSFSQ) the “DMS-derived PSSM value, position L2” value [12] was 0.1261.

“TLNPNAKEFNPRSF(averaged) K7Y (TLNPNAYEFNPRSF)” was tested, and the “DMS-derived PSSM value (averaged), position K7” value [17] was 0.2476.

With KSTLNPNAKEFNPRSF P6E (KSTLNENAKEFNPRSF) the “DMS-derived PSSM value, position P6” value [7] was 0.

For TLNPNAKEFNPRSFSQ N5G (TLNPGAKEFNPRSFSQ), the “DMS-derived PSSM value, position N5” value [1] was 0.01384.

“TLNPNAKEFNPRSFSQ S15P (TLNPNAKEFNPRSFPQ)” was tested, and the “DMS-derived PSSM value, position S15” value [9] was 0.326.

With KSTLNPNAKEFNPRSF L4K (KSTKNPNAKEFNPRSF) the “DMS-derived PSSM value, position L4” value (prey ATXN2, peptide KSTLNPNAKEFNPRSF, L = wild type) was 0.

In the case of “TLNPNAKEFNPRSF(averaged) S13Q (TLNPNAKEFNPRQF)”, the “DMS-derived PSSM value (averaged), position S13” value [3] is reported as 0.009251.

With “KSTLNPNAKEFNPRSF R14Y (KSTLNPNAKEFNPYSF)” the “DMS-derived PSSM value, position R14” value [11] was 0.04467.

With “TLNPNAKEFNPRSF(averaged) T1Y (YLNPNAKEFNPRSF)” the “DMS-derived PSSM value (averaged), position T1” value [15] was 0.168.

For “TLNPNAKEFNPRSF(averaged) T1E (ELNPNAKEFNPRSF)”, the “DMS-derived PSSM value (averaged), position T1” value [15] was 0.1201.

TLNPNAKEFNPRSFSQ L2Y (TYNPNAKEFNPRSFSQ) was tested, and the “DMS-derived PSSM value, position L2” value [12] was 0.1104.

“TLNPNAKEFNPRSF(averaged) K7T (TLNPNATEFNPRSF)” was tested, and the “DMS-derived PSSM value (averaged), position K7” value [17] was 0.01485.
